From PubChem BioAssay AID449764 (Southern Research Specialized Biocontainment Screening …, 2010)

Test system: Mycobacterium tuberculosis H37Rv growth inhibition, no glycerol
Assay: Mycobacterium tuberculosis H37Rv growth inhibition, no glycerol, confirmatory dose response (AID 449764);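 also: growth read after 7 days of incubation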
Conditions: for IC90: measured here: IC90 growth inhibition

Row | SMILES | IC50 | IC90
1 | Oc1ccccc1/C=N/NC(=S)NC1CC2CC1C1C=CCC21 (configuration not stated) | 11.9 µM | 18 µM
2 | CC(=O)c1ccc(Sc2nnnn2-c2ccccc2)c([N+](=O)[O-])c1 | 19.8 µM | 31.8 µM
3 | O=c1oc2ccccc2c(O)c1/C=C1\C=Nc2ccccc21 | 38.8 µM | 64.6 µM
4 | O=C(CSC1=NC(=O)C(c2ccccc2)C(=O)N1)Nc1ccccc1Cl (configuration not stated) | 7.27 µM | 24.2 µM
5 | CC(Oc1ccc(F)cc1)C(=O)Nc1sc2c(c1C(=O)NCc1cccnc1)CCCC2 (configuration not stated) | 43.6 µM | 86 µM
6 | COc1ccccc1C1c2ccc3ccccc3c2Oc2ncn(CCN(C)C)c(=N)c21 (configuration not stated) | 25.2 µM | 28.9 µM
7 | CC(C)NC(=S)N/N=C/c1c[nH]c2ccccc12 |  | > 100 µM
8 | O=C(NN=C1c2ccccc2-c2ccccc21)c1cccc(Br)c1 | 42.2 µM | > 100 µM
9 | CN(c1ccccc1)c1ccc(/C=C/[N+](=O)[O-])cc1 | 15 µM | 28 µM
10 | CC(C)Cn1c(N2CCN(C(=O)/C=C/c3ccccc3)CC2)nc2ccccc21 | 34 µM | 47.4 µM
11 | Cc1ccc(C2(c3ccc(C)cc3)CC2C(=O)Nc2ccc([N+](=O)[O-])cc2O)cc1 (configuration not stated) | 18.8 µM | 23.6 µM
12 | CSc1cccc(CNC(=O)C2CCC(=O)N(Cc3cccc(C(F)(F)F)c3)C2)c1 (configuration not stated) | 36.9 µM | 41.8 µM
13 | O=c1[nH]c(=O)n(C2CCCO2)cc1F (configuration not stated) | 57.1 µM | > 100 µM
14 | NC1=NC[C@H](Cc2ccc(O)cc2)N1CCc1cccc2ccccc12 | 40.9 µM | 45.6 µM
15 | O=C(O)c1[nH]c(=O)[nH]c(=O)c1F | 5.47 µM | 14.1 µM
16 | CCc1ccc(/C(C)=N/Nc2cc(Cl)nc(C)n2)cc1 | 34.1 µM | 59.5 µM
17 | Cc1nc2ccccc2c2nc3ccccc3n12 | 30.6 µM | 48.4 µM
18 | CSc1nc2nc3c(c(=O)n2[nH]1)CCCC3 | 23.8 µM | > 100 µM
19 | Cc1cccc(C)c1Nc1c(-c2ccccn2)nc2ccccn12 | 5.93 µM | 8.59 µM
20 | Cc1ccc(C)c(NC(=O)c2cc(-c3ccccc3)nn2-c2ccccc2)c1 | 34.6 µM | 55.9 µM
21 | COCCN(C(=O)C1CC(=O)N(Cc2ccccc2)C1)c1nc(-c2ccc([N+](=O)[O-])cc2)cs1 (configuration not stated) | 28.3 µM | > 100 µM
22 | CCCCOC(=O)CSc1nnc(-c2ccc(Cl)cc2Cl)o1 | < 0.2 µM | 7.21 µM
23 | O=C(c1ccc(-c2ccccc2)c(F)c1)C1CCCN(C(=O)c2cncs2)C1 (configuration not stated) | 32.5 µM | 49.4 µM

Row | SMILES | IC50 | IC90
24 | CC(=O)N1CCN(c2ccc(OC[C@H]3CO[C@](Cn4ccnc4)(c4ccc(Cl)cc4Cl)O3)cc2)CC1 | 14.6 µM | 20.8 µM
25 | CCOC(=O)c1nn(-c2ccc(C)cc2)c2nc(Nc3ccccc3)cc(=O)n12 | 12 µM | 13.6 µM
26 | Cc1cccc(NC(=O)CCSc2nnc(Cc3ccccc3)o2)c1 | 38.1 µM | > 100 µM
27 | O=C(NNC(=O)C12CC3CC(CC(C3)C1)C2)c1ccccn1 | 21.8 µM | 24.4 µM
28 | ClCc1nc2ccccc2c2ccccc12 | 20.6 µM | 28.4 µM
29 | C=CCNc1oc(-c2ccc(-c3ccccc3)cc2)nc1C#N | 16.1 µM | 19.6 µM
30 | Cc1cc2oc3ccc(NCCCn4ccnc4)cc3c(=O)c2cc1C | 23.2 µM | 25.7 µM
31 | CCOC(=O)CCCNC(=O)COC(=O)c1cc(Br)c(Br)s1 | 18.5 µM | > 100 µM
32 | COc1ccc(C(=O)C[n+]2ccc3c(c2)nc(-c2cc(OC)c(OC)cc2OC)n3C)cc1 | 11.6 µM | 13.1 µM
33 | COc1ccccc1C1CC(c2ccc(Cl)cc2)Nc2ncnn21 (configuration not stated) | 22.7 µM | 30.7 µM
34 | CN1CCN(c2cc(-c3ccccc3)nc3cc(-c4ccc(F)cc4)nn23)CC1 | 16.4 µM | 42.2 µM
35 | O=C1C(Br)=Cc2cccc3cccc1c23 | < 0.2 µM | < 0.2 µM
36 | CCCc1ccc2oc(C(=O)N(C)Cc3nccs3)c(C)c2c1 | 45 µM | 68.3 µM
37 | COc1ccc(C(=O)c2c(C(F)(F)F)oc3c2C(=O)c2ccccc2C3=O)cc1OC | 16.7 µM | 22.1 µM
38 | CC(C)(C)C1CCc2c(sc3nc(SCC(N)=O)nc(N)c23)C1 (configuration not stated) | 22.1 µM | 33.5 µM
39 | Cc1ccc(-c2csc3nc4c5ccccc5c(NCCCN5CCOCC5)nn4c(=O)c23)cc1 | 29 µM | 39.8 µM
40 | CSc1nn(-c2ccc(C(=O)OCC(=O)NC(=O)NC(C)C)cc2)c(=S)s1 | 35.7 µM | 48.9 µM
41 | CCCSc1nnc(Sc2nnnn2-c2ccccc2)s1 | 22.5 µM | 38.8 µM
42 | COC(=O)c1c(NC(=O)CCl)sc(C(=O)N2CCOCC2)c1C | 10 µM | 23.1 µM
43 | Nc1c(C(=O)NC2CCCCC2)nsc1C(=O)OCC(=O)NC1CCCCC1 | 2.89 µM | 3.4 µM
44 | CC(=O)c1ccc(NC(=O)c2cc(CC(C)C)on2)cc1 | 12 µM | 13.8 µM
45 | CCc1cc(OCCCCNCc2ccccc2)ccc1Cl | 26.9 µM | 36 µM
46 | CCOC(=O)N1CCC(N2Cc3cccc(C(=O)Nc4ccc(N(CC)CC)cc4C)c3C2=O)CC1 | 35.3 µM | > 100 µM

Row | SMILES | IC50 | IC90
47 | Cc1cc(/C=C\c2ccc3cc(N(C)C)ccc3[n+]2C)c(C)n1-c1ccccc1 | 3.26 µM | 4.49 µM
48 | CC(C)Cn1c([N+](=O)[O-])nc2c1c(=O)[nH]c(=O)n2C | 9.69 µM | 14.5 µM
49 | O=C(CSc1cccc[n+]1[O-])c1cccs1 | 34.9 µM | 42.2 µM
50 | COc1ccc(N2C(=O)C(Cl)=C(Nc3ccccc3O)C2=O)cc1 | 18.4 µM | 24.8 µM
51 | C=CCn1c(O)c(N=Nc2ccccc2O)c2ccccc21 | 16.4 µM | 22.4 µM
52 | CCc1ccc(-c2csc(-c3c[nH]c4ccccc34)n2)cc1 | 17.1 µM | 21.3 µM
53 | CCC(=O)c1ccc(OCC(O)CN2CCN(c3cccc(C(F)(F)F)c3)CC2)cc1 (configuration not stated) | 19.7 µM | 26.7 µM
54 | COc1ccc(/C=C2\CCC/C(=C\C=N\N(C)C)C2=O)cc1 | 12.4 µM | 17.8 µM
55 | O=C(CSc1nn(-c2ccc(F)cc2)c(=S)s1)NCC1CCCO1 (configuration not stated) | 20.7 µM | > 100 µM
56 | Cc1cc2c(cc1C)/C(=N/NC(=O)c1ccccn1)CCC2 | 24.2 µM | 53.6 µM
57 | COc1ccc(-c2csc(NC(C)c3nc4cc(Cl)c(N5CCCCC5)cc4n3CCCO)n2)cc1 (configuration not stated) | 23 µM | 26.2 µM
58 | C/C(=N\NC(=S)NCC(C)(C)C)c1cc(F)cc(F)c1O | 9.33 µM | 37.1 µM
59 | C/C(=C\C(=S)Nc1ccccc1)Nc1ccc2ccccc2c1 | 37.8 µM | 50.8 µM
60 | CCOc1ccc(CN(C)CC(O)COC(c2ccc(OC)cc2)c2ccc(OC)cc2)cc1 (configuration not stated) | 16.1 µM | 18.9 µM
61 | COC(=O)c1ccc2c(=O)[nH]c(CSc3nc(C)cs3)nc2c1 | 71.2 µM | > 100 µM
62 | OCCCNc1cc(-c2ccnc(Nc3cccc(Cl)c3)n2)ccn1 | 73.3 µM | 96 µM
63 | CCOC(=O)C1CCN(C(=O)CSCc2nc(-c3ccc(OCC)cc3)oc2C)CC1 | 46 µM | 49.2 µM
64 | Nc1c(C(=O)O)cnc2c(-c3ccc(Cl)cc3)cnn12 | 64 µM | 99.8 µM
65 | COc1ccc(-c2oc(NC(=O)CCl)c(C#N)c2-c2ccc(OC)cc2)cc1 | 43 µM | 61.7 µM
66 | CCCN(CCC)CCNC(=O)c1cc2c(-c3ccc(Cl)cc3)nn(C)c2s1 | 23.9 µM | 27.1 µM
67 | CC1CN(c2ccc([N+](=O)[O-])c(NCCOc3ccc(Cl)cc3)c2)CC(C)N1 (configuration not stated) | 15.5 µM | 31.2 µM
68 | COc1ccc(-c2c(C#N)c(SCC(=O)c3cc4ccccc4oc3=O)nc(C)c2C(=O)Nc2ccccc2)cc1 | 72.3 µM | > 100 µM
69 | Cc1nc(NCCc2ccccc2)c2oc3ccccc3c2n1 | 7.3 µM | 13.3 µM

Row | SMILES | IC50 | IC90
70 | OC(CNCCc1ccc(C(F)(F)F)cc1)COC(c1ccccc1)c1ccccc1 (configuration not stated) | 19.7 µM | 23.1 µM
71 | CCCCSCCCNC(=O)c1cn(CC)c2ccc(S(=O)(=O)N3CCOCC3)cc2c1=O | 44.3 µM | 50.8 µM
72 | CC(C)(C)c1ccc(Cn2c(=N)n(CC(O)c3ccco3)c3ccccc32)cc1 (configuration not stated) | 23.3 µM | 25.6 µM
73 | CSc1ccc(C(=O)C2CCCN(C(=O)c3ccc4c(c3)no[n+]4[O-])C2)cc1 (configuration not stated) | 1.65 µM | 2.53 µM
74 | COc1ccc(C(=O)OCC(=O)c2ccc(Br)s2)c(OC)c1 | 73.6 µM | > 100 µM
75 | N#C/C(=C\c1ccc(-c2ccc(Br)cc2)o1)C(=O)NCCc1c[nH]c2ccccc12 | 97.5 µM | > 100 µM
76 | N#Cc1c([N+](=O)[O-])cc([N+](=O)[O-])cc1S(=O)(=O)Cc1ccccc1 | 22.6 µM | 25.9 µM
77 | CSc1ccc(CNC(=O)c2ccc(NC(=O)C3=CSCCO3)cc2)cc1 | 7.07 µM | 25.5 µM
78 | CCOC(=O)c1ccc(N=c2sc(C(=O)OC)cc(=O)n2CCCN2CCOCC2)cc1 | 9.02 µM | 16.9 µM
79 | Cc1cc(=O)oc2cc(Oc3ccc([N+](=O)[O-])cc3C(F)(F)F)ccc12 | 50 µM | > 100 µM
80 | Cc1cccc(OCC(=O)NNC(=O)c2cc3ccccc3oc2=O)c1 |  | > 100 µM
81 | CSc1ncc(C(=O)Nc2ccc(Br)cn2)c(C)n1 | 1.54 µM | 2.93 µM
82 | Cc1ccc(NC(=O)c2cnc(SCC(=O)NCC3CCCO3)n(C)c2=O)cc1C (configuration not stated) | 32 µM | > 100 µM
83 | CCN1c2ccccc2N(C)C1(C)c1ccccc1 (configuration not stated) | 8.65 µM | 10.5 µM
84 | CCOC(=O)CN(C#N)c1nc(N(C)C)nc(N(C)C)n1 | 12.8 µM | 14.6 µM
85 | c1ccc(-c2nc(N3CCCC3)nc3ccccc23)cc1 | 47 µM | 53.5 µM
86 | CC(c1ccccc1)N1CCN(C(=O)CCl)CC1 (configuration not stated) | 2.75 µM | 4.33 µM
87 | CC1(C)CC(NC(=O)c2ccc(Cl)c(S(=O)(=O)N(Cc3ccccc3)c3ccccc3)c2)CC(C)(C)N1 | 28.3 µM | 43.4 µM
88 | COCc1nnc(NC(=O)C2CC(=O)N(c3ccc(C)c(Cl)c3)C2)s1 (configuration not stated) | 76.5 µM | > 100 µM
89 | O=S1(=O)CCC(N=Cc2ccc(-c3ccc(Cl)cc3)o2)C1 (configuration not stated) |  | > 100 µM
90 | O=C(OCc1ccccc1)/C(=C(\O)c1ccccc1Br)c1ccc(-c2ccccc2)cn1 | 35.4 µM | 49.3 µM
